In EP0194793A2, “9-Acyl tylosin derivatives” (Omura, Satoshi, priority 1985, dated 1986):
Converted amounts (≈) assume the structure as drawn. Where two headings read alike, the source gives them in different places.

Legend:
[1] = tested on: Klebsiella pneumoniae KB13(PCI 602); experiment: Minimum inhibitory concentration, nutrient agar dilution; format: cell-based; settings: for MIC: read-out: Minimum Inhibitory Concentrations
Protocol: (§1) Experiment 1: Minimum Inhibitory Concentration (µg/ml)
(§2) The tylosin derivatives obtained in Examples 1 through 9 were tested for their minimum inhibitory concentrations against gram-positive and gram-negative bacteria. The tests were conducted in conventional manner by inoculating varying concentrations of the test sample on a nutrient agar test medium and incubating at 37°C for 18-20 hours. The concentrations of the test samples inhibiting the bacteria growth were measured in µg per ml as a minimum inhibitory concentration.

[2] = tested on: Staphylococcus aureus KB-210 (ATC 65380); experiment: as above; format: cell-based; settings: for MIC: read-out: Minimum Inhibitory Concentrations
Protocol: as §1, §2

[3] = tested on: Micrococcus luteus KB212 (ATCC 9341); experiment: as above; format: cell-based
Protocol: as §1, §2

[4] = tested on: Bacillus subtilis KB-143(IFO 3001); experiment: as above; format: cell-based
Protocol: as §1, §2

[5] = tested on: Escherichia coli KB213 (NIHJ); experiment: as above; format: cell-based; settings: 37°C, 18-20 hours; for MIC: read-out: Minimum Inhibitory Concentrations
Protocol: as §1, §2

S. pyrogenes C203 = experiment: In vivo activity in infected mice
Protocol: Experiment 2: In vivo Activity
The compounds obtained in Examples 2 and 4 were separately administered subcutaneously or orally to mice infected with S. pyrogenes C203. The in vivo activity was measured as ED50 (mg/kg x 2).

[6] = Klebsiella pneumoniae KB13(PCI 602), nutrient agar, 37°C, 18-20 hours
[7] = Staphylococcus aureus KB-210 (ATC 65380), nutrient agar, 37°C, 18-20 hours
[8] = Micrococcus luteus KB212 (ATCC 9341), nutrient agar, 37°C, 18-20 hours
[9] = Bacillus subtilis KB-143(IFO 3001), nutrient agar, 37°C, 18-20 hours

| Compound | Minimum Inhibitory Concentrations [1, 6] | Minimum Inhibitory Concentrations [2, 7] | Minimum Inhibitory Concentrations [3, 8] | Minimum Inhibitory Concentrations [4, 9] | Minimum Inhibitory Concentrations [5] | further results |
| --- | --- | --- | --- | --- | --- | --- |
| 9-0-Benzoyl-9-dihydrodemycarosyltylosin [Example 8] | >100 µg/mL | 1.56 µg/mL | 0.2 µg/mL | 1.56 µg/mL | >100 µg/mL |  |
| 9-0-Propionyl-9-dihydrotylosin [Example 2] | >100 µg/mL | 0.78 µg/mL | <0.1 µg/mL | 0.2 µg/mL | >100 µg/mL | ED50 (S. pyrogenes C203; Oral, mice infected with S. pyrogenes C203): 12.5 mg/kg x 2; ED50 (S. pyrogenes C203; Subcutaneous, mice infected with S. pyrogenes C203): 2.5 mg/kg x 2 |
| 9-0-Acetyl-9-dihydrodemycarosyltylosin [Example 5] | >50 µg/mL | 1.56 µg/mL | 0.2 µg/mL | 1.56 µg/mL | >50 µg/mL |  |
| CCC1OC(=O)CC(O)C(C)C(OC2OC(C)C(O)C(N(C)C)C2O)C(CC=O)CC(C)C(=O)C=CC(C)=CC1COC1OC(C)C(O)C(OC)C1OC (stereo not drawn) [Detyl, Demycarosyltylosin, reference compound] |  |  |  |  |  | MIC [1, 6]: 100 µg/mL (≈ 130 µM); MIC [2, 7]: 3.12 µg/mL (≈ 4.04 µM); MIC ([3]; ATCC9341, Micrococcus luteus KB212 (ATCC 9341), nutrient agar, 37°C, 18-20 hours, read-out: Minimum Inhibitory Concentrations): 0.2 µg/mL (≈ 0.259 µM); MIC ([4]; IFO3001, Bacillus subtilis KB-143(IFO 3001), nutrient agar, 37°C, 18-20 hours, read-out: Minimum Inhibitory Concentrations): 3.12 µg/mL (≈ 4.04 µM); MIC [5]: > 100 µg/mL |
| CC[C@H]1OC(=O)C[C@@H](O)[C@H](C)[C@@H](O[C@@H]2O[C@H](C)[C@@H](O[C@H]3C[C@@](C)(O)[C@@H](O)[C@H](C)O3)[C@H](N(C)C)[C@H]2O)[C@@H](CC=O)C[C@@H](C)C(=O)/C=C/C(C)=C/[C@@H]1CO[C@@H]1O[C@H](C)[C@@H](O)[C@@H](OC)[C@H]1OC [Tyl, Tylosin] |  |  |  |  |  | MIC ([1]; Klebsiella pneumoniae): > 100 µg/mL; MIC ([2]; Staphylococcus aureus): 1.56 µg/mL (≈ 1.7 µM); MIC ([3]; Micrococcus luteus, ATCC9341, read-out: Minimum Inhibitory Concentrations): 0.2 µg/mL (≈ 0.218 µM); MIC ([4]; Bacillus subtilis, IFO3001, read-out: Minimum Inhibitory Concentrations): 0.78 µg/mL (≈ 0.851 µM); MIC [5]: > 100 µg/mL; ED50 (S. pyrogenes C203; Mus musculus, po): 50 mg/kg; ED50 (S. pyrogenes C203; Mus musculus, sc): 1 mg/kg |
| 9-0-Butyryl-9-dihydrotylosin [Example 3] | 100 µg/mL | 1.56 µg/mL | <0.1 µg/mL | 0.4 µg/mL | 100 µg/mL |  |
| 9-0-Propionyl-9-dihydrodemycarosyltylosin [Example 6] | >100 µg/mL | 1.56 µg/mL | 0.2 µg/mL | 1.56 µg/mL | >100 µg/mL |  |
| 9-0-Acetyl-9-dihydrotylosin [Example 1] | 100 µg/mL | 1.56 µg/mL | <0.1 µg/mL | 0.2 µg/mL | >100 µg/mL |  |
| 9-0-Butyryl-9-dihydrodemycarosyltylosin [Example 7] | >50 µg/mL | 1.56 µg/mL | 0.2 µg/mL | 1.56 µg/mL | >50 µg/mL |  |
| 9-0-Benzoyl-9-dihydrotylosin [Example 4] | >100 µg/mL | 0.78 µg/mL | <0.1 µg/mL | 0.2 µg/mL | >100 µg/mL |  |
